This is an account of results in US20230149326A1, “PHARMACEUTICAL COMPOSITION FOR PREVENTING OR TREATING MUSCULAR WEAKNESS-RELATED DISEASES COMPRISING ALVERINE, 4-HYDROXY ALVERINE, DERIVATIVE THEREOF, OR PHARMACEUTICALLY ACCEPTABLE SALT THEREOF” (AVENTI INC., priority 2020, published 2023).

Molecules are shown by their SMILES. Counter-ions that a name gives are not always drawn.

The subject of experiment [1] is C57BL/6 male mice. Put plainly: Balance coordination test (rota-rod), normal mouse. In kind it is in vivo. As for the experimental part: In order to confirm the muscle strength enhancement effect of alverine citrate, after administering alverine citrate to a mouse, the mouse was tested for motor functions such as grip strength, running, balance coordination, and the like. After motor function tests, muscle weight was measured. In particular, each of 10 week-old C57BL/6 male mice was dosed orally with 200 μL of alverine citrate for 4 weeks, at a daily dose of 17 mg/kg/day (AC-L), 50 mg/kg/day (AC-M) or 150 mg/kg/day (AC-H). This group of mice was set as the experimental group (FIG. 3). The 10 week-old C57BL/6 male mice were purchased from Daehan BioLink. Balance coordination was measured using a rota-rod test. The rota-rod test device consists of 4 test zones, each having a shaft diameter of 3 cm and a lane width of 9 cm, and 5 rotatable circular dividers having a diameter of 60 cm and a round rod. The test was started from a rotating speed of 10 rpm, and the speed was accelerated up to maximum 40 rpm over 5 minutes, and the duration for which the mouse remains inside the rota-rod device, clinging to the round rod without falling, was recorded. The mouse was allowed to rest for 15 minutes after each test and was subjected to three tests in total. An average value of three measurements was calculated.
In general terms: In the rotarod test animals must keep their balance on a rotating rod.

Experiment [2] deals with C57BL/6 male mice. Put plainly: Running ability test (treadmill), normal mouse. The settings on record: oral. It counts as in vivo. The procedure:
In order to confirm the muscle strength enhancement effect of alverine citrate, after administering alverine citrate to a mouse, the mouse was tested for motor functions such as grip strength, running, balance coordination, and the like. After motor function tests, muscle weight was measured. In particular, each of 10 week-old C57BL/6 male mice was dosed orally with 200 μL of alverine citrate for 4 weeks, at a daily dose of 17 mg/kg/day (AC-L), 50 mg/kg/day (AC-M) or 150 mg/kg/day (AC-H). This group of mice was set as the experimental group (FIG. 3). The 10 week-old C57BL/6 male mice were purchased from Daehan BioLink. Running ability was measured using a treadmill designed specific for this experiment. First, aversive stimuli were provided by letting electric stimuli flow at the starting point. Before the measurement, the mice were acclimatized at 8 m/min for 10 minutes. The running time was recorded by allowing mice in each group to run in separate lanes until exhaustion. Exhaustion was defined such that when the mouse stays outside the lanes for 10 seconds or more without running, the mouse was determined to be exhausted and the time was recorded. It was not possible to repeat this experiment on the same mouse. The mouse was placed on the treadmill and the test was started at 8 rpm, and the speed was accelerated by 2 rpm every 10 minutes to a maximum speed of 20 rpm. […]

Experiment [3] concerns C2C12 cells. Put plainly: Promotion of differentiation of myoblasts (MyHC fluorescent staining). It counts as cell-based, mouse. The procedure:
C2C12 (American Type Culture Collection, CRL-1772™) cells are a myoblast cell line obtained from C3H mouse and is used in myoblast differentiation research. The C2C12 cells were cultured using growth media, and then cultured using differentiation media for differentiation induction. Here, DMEM supplemented with 10% fetal bovine serum was used as growth media (GM), and DMEM supplemented with 5% horse serum (HS) was used as differentiation media (DM). In order to confirm the effect of alverine citrate on promoting the differentiation of myoblasts, C2C12 cells were dispensed in the GM of Example 1.1 and cultured for 24 hours, and then the C2C12 cells were treated with DMSO, insulin, or alverine citrate, and induced for differentiation over 3 days. […] Here, the DMSO, insulin and alverine citrate used in the experiment were all purchased from Sigma-Aldrich. The group treated with insulin was used as the positive control group. In particular, C2C12 cells were dispensed in a 6-well plate treated with the GM of Example 1.1 at a concentration of 5×10^5 cells per plate and after 24 hours, were replaced with DMEM media supplemented with 5% HS and induced for differentiation. Thereafter, the cells were treated with DMSO, insulin (1.72 μM) or alverine citrate (0.01 μM, 0.1 μM, 1 μM or 10 μM). After 3 days, after removing the media, the cells were washed with phosphate buffer solution (1× PBS) and treated with paraformaldehyde (4%) and fixed at room temperature for 15 minutes. Then, after washing three times with phosphate buffer solution (1× PBS), PBS containing 0.3% triton X-100 was treated with permeabilization buffer and allowed to react at room temperature for 10 minutes. After washing three times with phosphate buffer solution (1× PBS), PBST (blocking buffer, PBS containing 0.5% Tween 20) containing 2% bovine serum albumin was administered and allowed to react for 30 minutes to suppress nonspecific binding of antibodies. After washing with phosphate buffer (1× PBS) three times, 100 μL of primary antibodies (SC-20641, Santa Cruz Biotechnology) to MYH3 diluted to 1:500 were added and allowed to react at room temperature for 1 hour. Thereafter, after washing with phosphate buffer (1× PBS) three times, 100 μL of secondary antibodies (Goat anti-Rabbit IgG-HRP) diluted to 1:5,000 were added and allowed to react at room temperature for 1 hour. After 1 hour, for nuclear staining, after washing with phosphate buffer (1× PBS) three times, the blocking buffer was treated with diluted DAPI dye and allowed to react at room temperature for 10 minutes. Thereafter, after washing with phosphate buffer (1× PBS) three times, the washed cover glass was measured for absorbance at a wavelength of 450 nm and a fluorescent image was taken using a fluorescence microscope. The anti-MyHC antibody stained area was analyzed using imageJ (Java-based image processing program). To confirm the effect of 4-hydroxy alverine on promoting myoblast differentiation, following the same method as Example 1, DMSO, insulin (1.72 μM), alverine citrate (0.01 μM, 0.1 μM, 1 μM or 10 μM), 4-hydroxy alverine (0.01 μM, 0.1 μM, 1 μM or 10 μM) were each administered, and differentiation to myotubes and changes in myotube thickness and diameter were observed.

Experiment [4] relates to sarcopenia-induced mice. The experiment is described as follows: Muscle weight measurement, sarcopenia-induced mouse. The settings on record: hindlimb-immobilized mice; oral 17, 50, 150 mg/kg/day. In kind it is in vivo. As for the experimental part:
In order to confirm a muscle strength enhancement effect of alverine citrate, sarcopenia-induced mice were administered with alverine citrate and tested for running ability. After the treadmill running test, muscle weight was measured. In particular, the hindlimb of 10 week-old C57BL/6 male mice was immobilized using a surgical stapler (Autosuture Royal 35W stapler). The staples were removed after 5 days and the mice were allowed to remobilize for 3 days. After that, running ability was measured. The mice were dosed orally with 200 μL of alverine citrate per mice at a dose of 17 mg/kg/day (AC-L), 50 mg/kg/day (AC-M) or 150 mg/kg/day (AC-H), and these mice were set as the experimental group. Untreated sarcopenia-induced mice were set as the control group (FIG. 8). The 10 week-old C57BL/6 male mice were purchased from Daehan BioLink. For muscle weight measurement, the GA and TA muscles in the hindlimb of the mice in each group were removed and weighed.

On to `CCN(CCCc1ccccc1)CCCc1ccccc1` [alverine citrate], for which, in experiment [1] (as the administration dose increased (17, 50, 150 mg/kg/day)), the “duration clinging to the round rod, dependence on dose” value was “also increased proportionally”. Also, the “duration clinging onto the round rod” value in experiment [1] (oral, 4 weeks, 17, 50 or 150 mg/kg/day, compared with normal group) is “increased compared to the normal group mouse”. Besides, the running time entry in experiment [2] (4 weeks, 150 mg/kg/day) is recorded as “significant increase in the running time”; in experiment [2] (4 weeks, 17, 50 or 150 mg/kg/day, compared with normal group), “increased compared to the normal group mouse”. In addition, the diameter of myotubes result in experiment [3] (as the treatment concentration increases (0.01, 0.1, 1, 10 μM), 3 days) is listed as “the diameter of myotubes increased”. Besides, the “differentiation of myoblasts to myotubes” value is listed as “more differentiated to myotubes” in experiment [3] (compared with DMSO alone, 3 days, insulin 1.72 μM, alverine citrate 0.01-10 μM) and “more differentiated to myotubes” in experiment [3] (compared with DMSO or insulin (1.72 μM), 0.01-10 μM). Besides, in experiment [4], the “GA and TA muscle weights, dependence on dose” value is given as “also increased”.
